Measured values: PubChem BioAssay (NCI)
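A five-concentration, 48-hour dose response in 96-well plates underlies each endpoint, interpolated linearly between surrounding concentrations. The concentration for full growth arrest is given as TGI.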

How the values were obtained:
Assay in all cases: growth of human tumour cells (NCI), 48 h
[1] = test system: OVCAR-5 ovarian
[2] = test system: K-562 leukemia
[3] = test system: T-47D breast
[4] = test system: SF-539 CNS
[5] = test system: KM12 colon
[6] = test system: HS 578T breast
[7] = test system: M14 melanoma
[8] = test system: IGROV1 ovarian
[9] = test system: SR leukemia
[10] = test system: UO-31 renal
[11] = test system: SN12C renal
[12] = test system: UACC-62 melanoma
[13] = test system: A498 renal
[14] = test system: ACHN renal
[15] = test system: NCI-H23 lung
[16] = test system: LOX IMVI melanoma
[17] = test system: SK-OV-3 ovarian
[18] = test system: MDA-MB-231 breast
[19] = test system: SK-MEL-5 melanoma
[20] = test system: TK-10 renal
[21] = test system: DU-145 prostate
[22] = test system: MDA-N
[23] = test system: MALME-3M melanoma
[24] = test system: SNB-75 CNS
[25] = test system: NCI-H460 lung
[26] = test system: OVCAR-8 ovarian
[27] = test system: CAKI-1 renal
[28] = test system: NCI-H226 lung
[29] = test system: RXF 393 renal
[30] = test system: BT-549 breast
[31] = test system: 786-0 renal
[32] = test system: A549 NSCLC
[33] = test system: HCT-15 colon
[34] = test system: U251 CNS
[35] = test system: COLO 205 colon
[36] = test system: HL-60(TB) leukemia
[37] = test system: MDA-MB-435
[38] = test system: SW-620 colon
[39] = test system: RPMI-8226 leukemia
[40] = test system: SK-MEL-2 melanoma
[41] = test system: OVCAR-4 ovarian
[42] = test system: HOP-62 NSCLC
[43] = test system: UACC-257 melanoma
[44] = test system: MCF7 breast
[45] = test system: OVCAR-3 ovarian
[46] = test system: SNB-19 CNS
[47] = test system: NCI/ADR-RES ovarian
[48] = test system: PC-3 prostate
[49] = test system: NCI-H522 lung
[50] = test system: HT29 colon
[51] = test system: EKVX NSCLC
[52] = test system: HCT-116 colon
[53] = test system: SK-MEL-28 melanoma
[54] = test system: SF-295 CNS
[55] = test system: SF-268 CNS
[56] = test system: HOP-92 NSCLC
[57] = test system: MOLT-4 leukemia
[58] = test system: CCRF-CEM leukemia
[59] = test system: HCC-2998 colon

NC(N)=NCC(N)C(=O)O (stereo not given)
TGI [1]: > 100 µM | TGI [2]: > 100 µM | TGI [3]: > 100 µM | TGI [4]: > 100 µM | TGI [5]: > 100 µM | TGI [6]: > 100 µM | TGI [7]: > 100 µM | TGI [8]: > 100 µM | TGI [9]: > 100 µM | TGI [10]: > 100 µM | TGI [11]: > 100 µM | TGI [12]: > 100 µM | TGI [13]: > 100 µM | TGI [14]: > 100 µM | TGI [15]: > 100 µM | TGI [16]: > 100 µM | TGI [17]: > 100 µM | TGI [18]: > 100 µM | TGI [19]: > 100 µM | TGI [20]: > 100 µM | TGI [21]: > 100 µM | TGI [22]: > 100 µM | TGI [23]: > 100 µM | TGI [24]: > 100 µM | TGI [25]: > 100 µM | TGI [26]: > 100 µM | TGI [27]: > 100 µM | TGI [28]: > 100 µM | TGI [29]: > 100 µM | TGI [30]: > 100 µM | TGI [31]: > 100 µM | TGI [32]: > 100 µM | TGI [33]: > 100 µM | TGI [34]: > 100 µM | TGI [35]: > 100 µM | TGI [36]: > 100 µM | TGI [37]: > 100 µM | TGI [38]: > 100 µM | TGI [39]: > 100 µM | TGI [40]: > 100 µM | TGI [41]: > 100 µM | TGI [42]: > 100 µM | TGI [43]: > 100 µM | TGI [44]: > 100 µM | TGI [45]: > 100 µM | TGI [46]: > 100 µM | TGI [47]: > 100 µM | TGI [48]: > 100 µM | TGI [49]: > 100 µM | TGI [50]: > 100 µM | TGI [51]: > 100 µM | TGI [52]: > 100 µM | TGI [53]: > 100 µM | TGI [54]: > 100 µM | TGI [55]: > 100 µM | TGI [56]: > 100 µM

C/C=C1\CC(C(=O)OCC)CCCCCCCCCCC1=O (stereo not given)
TGI [1]: > 100 µM | TGI [3]: > 100 µM | TGI [4]: > 100 µM | TGI [5]: > 100 µM | TGI [6]: > 100 µM | TGI [7]: > 100 µM | TGI [8]: > 100 µM | TGI [10]: > 100 µM | TGI [11]: > 100 µM | TGI [12]: > 100 µM | TGI [13]: > 100 µM | TGI [14]: > 100 µM | TGI [15]: > 100 µM | TGI [16]: 80.8 µM | TGI [17]: > 100 µM | TGI [18]: > 100 µM | TGI [19]: > 100 µM | TGI [20]: > 100 µM | TGI [21]: > 100 µM | TGI [22]: > 100 µM | TGI [23]: > 100 µM | TGI [24]: > 100 µM | TGI [25]: > 100 µM | TGI [57]: > 100 µM | TGI [26]: > 100 µM | TGI [27]: > 100 µM | TGI [28]: > 100 µM | TGI [29]: > 100 µM | TGI [30]: > 100 µM | TGI [31]: > 100 µM | TGI [32]: > 100 µM | TGI [33]: > 100 µM | TGI [34]: > 100 µM | TGI [35]: > 100 µM | TGI [36]: > 100 µM | TGI [37]: 38 µM | TGI [38]: > 100 µM | TGI [40]: > 100 µM | TGI [41]: > 100 µM | TGI [42]: > 100 µM | TGI [43]: > 100 µM | TGI [44]: > 100 µM | TGI [46]: > 100 µM | TGI [47]: > 100 µM | TGI [48]: > 100 µM | TGI [49]: 81.5 µM | TGI [58]: > 100 µM | TGI [50]: > 100 µM | TGI [51]: > 100 µM | TGI [52]: > 100 µM | TGI [53]: > 100 µM | TGI [54]: > 100 µM | TGI [55]: > 100 µM

O=C(Oc1cccc(Cl)c1)c1cc2cc(CCl)ccc2oc1=O
TGI [1]: > 100 µM | TGI [2]: > 100 µM | TGI [3]: > 100 µM | TGI [4]: > 100 µM | TGI [5]: > 100 µM | TGI [6]: > 100 µM | TGI [7]: 31.4 µM | TGI [8]: > 100 µM | TGI [9]: > 100 µM | TGI [10]: > 100 µM | TGI [11]: > 100 µM | TGI [59]: 34.4 µM | TGI [12]: 28.2 µM | TGI [14]: 38.5 µM | TGI [15]: > 100 µM | TGI [16]: > 100 µM | TGI [17]: > 100 µM | TGI [18]: > 100 µM | TGI [19]: 33.2 µM | TGI [20]: > 100 µM | TGI [21]: 62.9 µM | TGI [22]: > 100 µM | TGI [23]: 33.5 µM | TGI [24]: > 100 µM | TGI [25]: > 100 µM | TGI [57]: > 100 µM | TGI [26]: > 100 µM | TGI [27]: > 100 µM | TGI [28]: > 100 µM | TGI [29]: 62.7 µM | TGI [30]: > 100 µM | TGI [31]: > 100 µM | TGI [32]: > 100 µM | TGI [33]: > 100 µM | TGI [35]: 45.9 µM | TGI [36]: 82 µM | TGI [37]: > 100 µM | TGI [38]: > 100 µM | TGI [39]: > 100 µM | TGI [40]: 28.9 µM | TGI [41]: > 100 µM | TGI [42]: > 100 µM | TGI [43]: 31.3 µM | TGI [44]: 99.6 µM | TGI [45]: > 100 µM | TGI [46]: > 100 µM | TGI [47]: > 100 µM | TGI [48]: > 100 µM | TGI [49]: 49.5 µM | TGI [50]: > 100 µM | TGI [51]: > 100 µM | TGI [52]: > 100 µM | TGI [53]: > 100 µM | TGI [54]: > 100 µM | TGI [55]: > 100 µM | TGI [56]: 43.1 µM
